The values below come from patent publication US11015200B2, “Antisense-induced exon exclusion in myostatin” (Sarepta Therapeutics, Inc., priority 2015, dated 2021).

{TEG} = triethylene glycol spacer

Data set [1] has as its system exon 2 of the human myostatin gene (huMSTN). The experiment in a line: Exon 2 skipping by RT-PCR in nucleofected human rhabdomyosarcoma (RD) cells. Type of data set: cell-based. The following applies: for EC50: RD cells nucleofected with PMO at 10, 3, 1, 0.3 μM, overnight, concentration inducing 50% exon skipping; for exon skipping, in words: third series, FIG. 5, RD cells, based on the calculated EC50 values. Here is the method: (§1) In vitro experiments were performed to investigate the ability of antisense oligonucleotides designed and prepared as described above to decrease the expression of exon 2 containing myostatin pre-mRNA. Both human rhabdomyosarcoma cells (RD cells; ATCC CCL-136) and primary human myoblasts were used in the experiments as noted. RD cells or primary human skeletal myoblasts were nucleofected with PMOs at 10, 3, 1 and 0.3 μM in SG or P3 nucleofector solution, respectively, and incubated overnight at 37° C. with 5% CO2. Total RNA was isolated from the cells and RT-PCR was performed using primers Myostatin EX1 Fwd (5′ […] SEQ ID NO: 48) and Myostatin EX3 Rev (5′ […] SEQ ID NO: 49). Amplified samples were analyzed using the LabChip Caliper to determine percent exon 2 skipping. EC50 values were determined using non-linear regression analysis in GraphPad Prism. EC50 values represent the concentration at which the test PMO induces 50% exon skipping.

For data set [2] the test system is unchanged. The experiment in a line: Exon 2 skipping by RT-PCR in nucleofected primary human myoblasts. Conditions: primary human myoblasts nucleofected with PMO at 10, 3, 1, 0.3 μM, overnight, concentration inducing 50% exon skipping. Type of data set: cell-based. Here is the method: as §1
The mark [3] stands for this setting: second series (FIG. 4), * = ambiguous fit on non-linear regression.

The term EC50 denotes the concentration giving half of the maximal effect. Low values mean greater potency, high ones weaker potency. In data set [1] (third series (FIG. 5)), “huMSTN-SA2(02 + 23): PMO, 5′ TEG, 3′ H; targeting sequence ATCCACTTGCATTAGAAAATCAGCT (all phosphorodiamidate morpholino (PMO), 5' {TEG})” had an EC50 of 1020 nM.
For the substance “huMSTN-SA2(−07 + 18): PMO, 5′ TEG, 3′ H; targeting sequence CTTGCATTAGAAAATCAGCTATAAA (all phosphorodiamidate morpholino (PMO), 5' {TEG})”, the half-maximal effective concentration (EC50) in data set [1] (third series (FIG. 5)) came out at 881 nM.
On to “huMSTN-SA2(−04 + 21): PMO, 5′ TEG, 3′ H; targeting sequence CCACTTGCATTAGAAAATCAGCTAT (all phosphorodiamidate morpholino (PMO), 5' {TEG})”, for which, in data set [1] (third series (FIG. 5)), the EC50 stood at 365 nM. Besides, the “exon skipping, in words” value in data set [1] is reported as “most effective”.
As to “muhuMSTN-SD2(+02 − 22): PMO, 5′ TEG, 3′ H; targeting sequence GTTATTTTCAGTTATCACTTACCA (all phosphorodiamidate morpholino (PMO), 5' {TEG})”, a half-maximal response in data set [2] (fourth series (FIG. 6)) (EC50) required 687 nM.
On to “muhuMSTN-SD2(+02 − 20): PMO, 5′ TEG, 3′ H; targeting sequence TATTTTCAGTTATCACTTACCA (all phosphorodiamidate morpholino (PMO), 5' {TEG})”, for which, in data set [2] (fourth series (FIG. 6)), the concentration for a half-maximal effect (EC50) came to 4060 nM.
As for “muhuMSTN-SD2(+07 − 16): PMO, 5′ TEG, 3′ H; targeting sequence TTCAGTTATCACTTACCAGCCCA (all phosphorodiamidate morpholino (PMO), 5' {TEG})”, the half-maximal effective concentration (EC50) in data set [2] (fourth series (FIG. 6)) came to 612 nM.
Same read-out and setting: under “muhuMSTN-SD2(+09 − 16): PMO, 5′ TEG, 3′ H; targeting sequence TTCAGTTATCACTTACCAGCCCATC (all phosphorodiamidate morpholino (PMO), 5' {TEG})” stands 549 nM.
Regarding “muhuMSTN-SD2(+02 − 18): PMO, 5′ TEG, 3′ H; targeting sequence TTTTCAGTTATCACTTACCA (all phosphorodiamidate morpholino (PMO), 5' {TEG})”, in data set [2] (fourth series (FIG. 6)), the concentration giving a half-maximal response (EC50) turned out to be 6210 nM.
Substance “muhuMSTN-SD2(+09 − 15): PMO, 5′ TEG, 3′ H; targeting sequence TCAGTTATCACTTACCAGCCCATC (all phosphorodiamidate morpholino (PMO), 5' {TEG})” showed an EC50 in data set [2] (fourth series (FIG. 6)) of 771 nM.
Turning to “muhuMSTN-SD2(+10 − 15): PMO, 5′ TEG, 3′ H; targeting sequence TCAGTTATCACTTACCAGCCCATCT (all phosphorodiamidate morpholino (PMO), 5' {TEG})”, the figures for the concentration giving a half-maximal response (EC50) in data set [2] (first series (FIG. 3)), in data set [1] (setting [3]) and in data set [1] (third series (FIG. 5)) were 1070 nM, 0.02 nM and 115 nM, respectively. For the same substance, the “exon skipping, in words” value in data set [1] is listed as “most effective”.
On to “muhuMSTN-SD2(+04 − 16): PMO, 5′ TEG, 3′ H; targeting sequence TTCAGTTATCACTTACCAGC (all phosphorodiamidate morpholino (PMO), 5' {TEG})”, for which the EC50 in data set [2] (fourth series (FIG. 6)) turned out to be 3910 nM.
The substance “muhuMSTN-SD2(+06 − 16): PMO, 5′ TEG, 3′ H; targeting sequence TTCAGTTATCACTTACCAGCCC (all phosphorodiamidate morpholino (PMO), 5' {TEG})” registered a 50% effective concentration (EC50) in data set [2] (fourth series (FIG. 6)) of 829 nM.
Regarding “muhuMSTN-SD2(+19 − 06): PMO, 5′ TEG, 3′ H; targeting sequence ACTTACCAGCCCATCTTCTCCTGGT (splice-switching; all phosphorodiamidate morpholino (PMO), 5' {TEG})”, the EC50 in data set [1] (setting [3]) was determined as 1330 nM.
On to “muhuMSTN-SD2(+09 − 12): PMO, 5′ TEG, 3′ H; targeting sequence GTTATCACTTACCAGCCCATC (all phosphorodiamidate morpholino (PMO), 5' {TEG})”, for which, in data set [2] (fourth series (FIG. 6)), the EC50 was 4350 nM.
Consider “muhuD30-SD2(+30 + 1): sequence known in the prior art (US 2013/0085139), 5′ TEG, 3′ H; CAGCCCATCTTCTCCTGGTCCTGGGAAGGT (all phosphorodiamidate morpholino (PMO), 5' {TEG}) [reference compound]”, for which the half-maximal effective concentration (EC50) was found to be 2700 nM in data set [2] (first series (FIG. 3)) and 522 nM in data set [1] (setting [3]).
On to “muhuMSTN-SD2(+04 − 21): PMO, 5′ TEG, 3′ H; targeting sequence TTATTTTCAGTTATCACTTACCAGC (all phosphorodiamidate morpholino (PMO), 5' {TEG})”, for which the 50% effective concentration (EC50) worked out at 1050 nM in data set [2] (first series (FIG. 3)) and 0.92 nM in data set [1] (setting [3]).
In data set [2] (fourth series (FIG. 6)), “muhuMSTN-SD2(+05 − 16): PMO, 5′ TEG, 3′ H; targeting sequence TTCAGTTATCACTTACCAGCC (all phosphorodiamidate morpholino (PMO), 5' {TEG})” showed an EC50 of 1330 nM.
“muhuMSTN-SD2(+08 − 16): PMO, 5′ TEG, 3′ H; targeting sequence TTCAGTTATCACTTACCAGCCCAT (all phosphorodiamidate morpholino (PMO), 5' {TEG})” gave an EC50 in data set [2] (fourth series (FIG. 6)) of 622 nM.
For “muhuMSTN-SD2(+02 − 23): PMO, 5′ TEG, 3′ H; targeting sequence TGTTATTTTCAGTTATCACTTACCA (all phosphorodiamidate morpholino (PMO), 5' {TEG})”, in data set [2] (fourth series (FIG. 6)), the EC50 was 277 nM.
“muhuMSTN-SD2(+01 − 23): PMO, 5′ TEG, 3′ H; targeting sequence TGTTATTTTCAGTTATCACTTACC (all phosphorodiamidate morpholino (PMO), 5' {TEG})”: the EC50 in data set [2] (fourth series (FIG. 6)) worked out at 648 nM.
For the substance “muhuMSTN-SD2(+22 − 03): PMO, 5′ TEG, 3′ H; targeting sequence TACCAGCCCATCTTCTCCTGGTCCT (splice-switching; all phosphorodiamidate morpholino (PMO), 5' {TEG})”, the 50% effective concentration (EC50) in data set [1] (setting [3]) turned out to be 1410 nM.
Turning to “muhuMSTN-SD2(+09 − 14): PMO, 5′ TEG, 3′ H; targeting sequence CAGTTATCACTTACCAGCCCATC (all phosphorodiamidate morpholino (PMO), 5' {TEG})”, the response in data set [2] (fourth series (FIG. 6)) was half-maximal at 1250 nM (EC50).
On to “muhuMSTN-SD2(+02 − 19): PMO, 5′ TEG, 3′ H; targeting sequence ATTTTCAGTTATCACTTACCA (all phosphorodiamidate morpholino (PMO), 5' {TEG})”, for which a half-maximal response in data set [2] (fourth series (FIG. 6)) (EC50) required 3580 nM.
The same measure, in the same setting: then “muhuMSTN-SD2(+02 − 21): PMO, 5′ TEG, 3′ H; targeting sequence TTATTTTCAGTTATCACTTACCA (all phosphorodiamidate morpholino (PMO), 5' {TEG})”, with 3990 nM.
Take “huMSTN-SA2(−03 + 22): PMO, 5′ TEG, 3′ H; targeting sequence TCCACTTGCATTAGAAAATCAGCTA (all phosphorodiamidate morpholino (PMO), 5' {TEG})”: the EC50 in data set [1] (third series (FIG. 5)) was determined as 11900 nM.
“huMSTN-SA2(−01 + 25): PMO, 5′ TEG, 3′ H; targeting sequence CCATCCACTTGCATTAGAAAATCAGC (all phosphorodiamidate morpholino (PMO), 5' {TEG})” registered a concentration giving a half-maximal response (EC50) in data set [2] (first series (FIG. 3)) of 2160 nM.
On to “muhuMSTN-SD2(+07 − 18): PMO, 5′ TEG, 3′ H; targeting sequence TTTTCAGTTATCACTTACCAGCCCA (all phosphorodiamidate morpholino (PMO), 5' {TEG})”, for which the results for the half-maximal effective concentration (EC50) in data set [2] (first series (FIG. 3)) and in data set [1] (setting [3]) were 662 nM and 0.06 nM, respectively.
Turning to “huMSTN-SA2(−05 + 20): PMO, 5′ TEG, 3′ H; targeting sequence CACTTGCATTAGAAAATCAGCTATA (all phosphorodiamidate morpholino (PMO), 5' {TEG})”, the figures for the 50% effective concentration (EC50) in data set [2] (first series (FIG. 3)) and in data set [1] (third series (FIG. 5)) were 3860 nM and 214 nM, respectively. Moreover, the “exon skipping, in words” value in data set [1] is “most effective”.
With “muhuMSTN-SD2(+24 − 01): PMO, 5′ TEG, 3′ H; targeting sequence CCAGCCCATCTTCTCCTGGTCCTGG (splice-switching; all phosphorodiamidate morpholino (PMO), 5' {TEG})”, it took 1410 nM to reach a half-maximal effect in data set [1] (setting [3]) (EC50).
In the case of “muhuMSTN-SD2(+01 − 24): PMO, 5′ TEG, 3′ H; targeting sequence ATGTTATTTTCAGTTATCACTTACC (all phosphorodiamidate morpholino (PMO), 5' {TEG})”, the EC50 in data set [2] (fourth series (FIG. 6)) was found to be 642 nM.
Take “muhuMSTN-SD2(+13 − 12): PMO, 5′ TEG, 3′ H; targeting sequence GTTATCACTTACCAGCCCATCTTCT (all phosphorodiamidate morpholino (PMO), 5' {TEG})”: the EC50 in data set [1] (setting [3]) is 970 nM.
Turning to “huMSTN-SA2(−01 + 24): PMO, 5′ TEG, 3′ H; targeting sequence CATCCACTTGCATTAGAAAATCAGC (all phosphorodiamidate morpholino (PMO), 5' {TEG})”, in data set [1] (third series (FIG. 5)), the concentration giving a half-maximal response (EC50) came out at 551 nM. The “exon skipping, in words” value in data set [1] is “most effective”.
For the substance “muhuMSTN-SD2(+09 − 11): PMO, 5′ TEG, 3′ H; targeting sequence TTATCACTTACCAGCCCATC (all phosphorodiamidate morpholino (PMO), 5' {TEG})”, the EC50 in data set [2] (fourth series (FIG. 6)) was above 10000 nM.
Same read-out and setting: under “muhuMSTN-SD2(+09 − 13): PMO, 5′ TEG, 3′ H; targeting sequence AGTTATCACTTACCAGCCCATC (all phosphorodiamidate morpholino (PMO), 5' {TEG})” stands 2400 nM.
